For assay [1], the system named is GPR83 and GPR83del with Gα16 (HEK293). The experiment in a line: Intracellular calcium mobilization, Gα16-transfected HEK293 cells. The assay is classed as cell-based, human. The following applies: 10 µM PEN, 100 µM carbachol, 100 µM ATP, Fluo4-AM fluorescence, duplicate, repeated at least two times. The procedure:
(§1) As activation of many GPCRs is coupled to calcium mobilization from intracellular stores, GPR83 was probed for ligand-dependent calcium release. Wild-type HEK293 cells and HEK293 clones overexpressing either full-length GPR83 or the N-terminal deletion variant GPR83del were exposed to buffer or one of two independent synthesis batches (PEN #1 and PEN #2) of the neuropeptide PEN, while calcium indicator fluorescence was recorded. […] Calcium release was also tested in a second cell line, osteosarcoma U2OS cells, using various stably expressing clones. […] Therefore, HEK293 cells transfected with Gα16 were employed to investigate a potential GPR83-dependent calcium mobilization with PEN. […] A number of GPCRs show ligand-independent basal calcium activity. However, in an experiment comparing basal calcium levels in wild-type HEK293 cells and in HEK293 clones overexpressing four different variants of GPR83, they were not found to be different (Figure 2D).
(§2) Figure 2 Investigation of ligand-dependent and ligand-independent intracellular calcium mobilization. (A) Wild-type HEK293 cells and HEK293 cell clones overexpressing either GPR83 or the deletion variant GPR83del were incubated with either buffer or the specified ligand (10 µM PEN or co mix = 100 µM carbachol, 100 µM ATP, 40 µM dimaprit, or 50 µM ionomycin). (B) Calcium indicator fluorescence intensity traces over 60 s of various U2OS cell clones overexpressing untagged or HA-tagged GPR83 or the deletion variant GPR83del before and after the addition of buffer or ligand (co mix as in (A) or 50 µM ionomycin or 10 µM PEN). […]
(§3) Cells were seeded at 50,000 cells/well in a poly-D-lysine coated 96-well black well/clear bottom plate (BD Falcon, Franklin Lakes, NJ, USA) and cultured overnight. […] Fluorescence was recorded with the fluorescence imaging plate reader CellLux (Perkin Elmer, Waltham, MA, USA) simultaneously in all wells at an excitation wavelength of 488 nm and emission wavelength of 510 nm in 1.5 s intervals over a period of 4 min. Fluorescence data were generated in duplicate, and experiments were repeated at least two times.
(A change in cytosolic calcium serves as a functional read-out for many receptors and channels.)

The test system of assay [2] is GPR83 and deletion variant GPR83del (HEK293 clones; wild-type HEK293 as comparison). The experiment in a line: Intracellular calcium mobilization, HEK293 cells. In kind it is cell-based, human. Conditions: 10 µM PEN; co mix = 100 µM carbachol, 100 µM ATP, 40 µM dimaprit; 50 µM ionomycin; HEK293 wild-type, GPR83 or GPR83del clones; Fluo4-AM fluorescence, compared with buffer; duplicate, repeated at least two times. The method, then:
as §1, §2, §3

Our source for the calcium signal values is paper PMC10606834, “Is the Neuropeptide PEN a Ligand of GPR83?” (International Journal of Molecular Sciences, 2023).

Turning to `Nc1ncnc2c1ncn2[C@@H]1O[C@H](COP(=O)(O)OP(=O)(O)OP(=O)(O)O)[C@@H](O)[C@H]1O` [ATP], the calcium signal entry in assay [1] is “strongly enhanced the calcium signal”.

Consider `C[N+](C)(C)CCOC(N)=O` [carbachol], for which, in assay [1], the calcium signal result was “strongly enhanced the calcium signal”.

Consider `C[C@H](CCC(=O)O)C[C@H](C)C[C@H](C)C(=O)/C=C(\O)[C@H](C)C[C@H](C)C/C=C/[C@@H](C)[C@@H](O)[C@@H](C)[C@@H](O)C[C@@H]1CC[C@@](C)([C@H]2CC[C@@](C)([C@@H](C)O)O2)O1` [ionomycin, reference compound], for which, in assay [2], the calcium signal result is recorded as “clear calcium signal above buffer background”.
